Assay results published in patent US20230081390A1, “INHIBITORS OF RAF KINASES” (Kinnate Biopharma Inc., priority 2019, published 2023).

These compounds were tested against human RAF1 (Homo sapiens, UniProt P04049) (assay: Protein kinase assay (33P-ATP filter binding), human RAF1, 10-dose IC50). Settings: MEK1 (K97R) substrate 3 micromolar, ATP 10 micromolar, read-out: RAF-1 IC50.
Type: biochemical
In short: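 Human RAF1 phosphorylated human MEK1 (K97R) substrate at 3 µM with 10 µM ATP (³³P), in pH 7.5 HEPES buffer with MgCl2, EGTA, Brij35, BSA, Na3VO4 and DTT. Reactions ran for 2 hr at room temperature with P81 filter capture.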

Chain of human RAF1 (P04049 whole entry): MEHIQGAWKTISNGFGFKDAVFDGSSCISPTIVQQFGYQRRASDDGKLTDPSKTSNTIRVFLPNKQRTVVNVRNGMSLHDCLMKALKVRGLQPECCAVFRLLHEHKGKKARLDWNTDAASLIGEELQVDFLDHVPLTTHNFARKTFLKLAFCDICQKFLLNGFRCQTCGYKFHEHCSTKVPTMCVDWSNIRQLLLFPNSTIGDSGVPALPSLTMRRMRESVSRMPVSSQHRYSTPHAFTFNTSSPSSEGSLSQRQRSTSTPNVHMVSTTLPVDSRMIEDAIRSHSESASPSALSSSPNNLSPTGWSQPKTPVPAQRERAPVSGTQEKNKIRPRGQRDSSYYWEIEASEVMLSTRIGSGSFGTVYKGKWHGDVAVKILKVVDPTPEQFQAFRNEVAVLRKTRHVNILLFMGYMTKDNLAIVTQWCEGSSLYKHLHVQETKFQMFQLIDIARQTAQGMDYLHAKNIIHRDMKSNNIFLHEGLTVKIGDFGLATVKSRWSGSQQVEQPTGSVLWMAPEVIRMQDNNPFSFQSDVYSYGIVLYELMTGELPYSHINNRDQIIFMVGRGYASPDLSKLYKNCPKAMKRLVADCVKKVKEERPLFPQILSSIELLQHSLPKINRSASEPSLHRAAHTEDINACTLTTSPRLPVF

IC50, < 10 nM:
Cc1ccc(NC(=O)N2CCC3(C2)CC(F)(F)C3)cc1-c1cc(OCCO)nc(N2CCOCC2)c1 [Example 167, 2,2-difluoro-N-(3-(2-(2-hydroxyethoxy)-6-morpholinopyridin-4-yl)-4-methylphenyl)-6-azaspiro[3.4]octane-6-carboxamide]
Cc1cc(F)c(NC(=O)N2CCS[C@H](C(F)(F)F)C2)cc1-c1cc(OCCO)nc(N2CCOCC2)c1 [Example 168, (S)-N-(2-fluoro-5-(2-(2-hydroxyethoxy)-6-morpholinopyridin-4-yl)-4-methylphenyl)-2-(trifluoromethyl)thiomorpholine-4-carboxamide]
Cc1cc(F)c(NC(=O)N2CCS[C@@H](C(F)(F)F)C2)cc1-c1cc(OCCO)nc(N2CCOCC2)c1 [Example 169, (R)-N-(2-fluoro-5-(2-(2-hydroxyethoxy)-6-morpholinopyridin-4-yl)-4-methylphenyl)-2-(trifluoromethyl)thiomorpholine-4-carboxamide]
Cc1ccc(NC(=O)N2CC[C@H](OC(F)(F)F)C2)cc1-c1cc(OC(C)(C)CO)nc(N2CCOCC2)c1 [Example 170, (3S)-N-(3-[2-[(1-hydroxy-2-methylpropan-2-yl)oxy]-6-(morpholin-4-yl)pyridin-4-yl]-4-methylphenyl)-3-(trifluoromethoxy)pyrrolidine-1-carboxamide]
Cc1ccc(NC(=O)N2CC=C(C(F)(F)F)C2)cc1-c1cc(O[C@H](C)[C@@H](C)O)nc(N2CCOCC2)c1 [Example 171, N-(3-(2-(((2R,3R)-3-hydroxybutan-2-yl)oxy)-6-morpholinopyridin-4-yl)-4-methylphenyl)-3-(trifluoromethyl)-2,5-dihydro-1H-pyrrole-1-carboxamide]
Cc1ccc(NC(=O)N2CC[C@H](OC(F)(F)F)C2)cc1-c1cc(O[C@H](C)[C@@H](C)O)nc(N2CCOCC2)c1 [Example 172, (S)-N-(3-(2-(((2R,3R)-3-hydroxybutan-2-yl)oxy)-6-morpholinopyridin-4-yl)-4-methylphenyl)-3-(trifluoromethoxy)pyrrolidine-1-carboxamide]
Cc1ccc(NC(=O)n2ccc(C(C)(C)C)c2)cc1-c1cc(OCCO)nc(N2CCOCC2)c1 [Example 173, 3-(tert-butyl)-N-(3-(2-(2-hydroxyethoxy)-6-morpholinopyridin-4-yl)-4-methylphenyl)-1H-pyrrole-1-carboxamide]
Cc1ccc(NC(=O)N2CC[C@H](OC(F)F)C2)cc1-c1cc(O[C@H](C)[C@@H](C)O)nc(N2CCOCC2)c1 [Example 174, (S)-3-(difluoromethoxy)-N-(3-(2-(((2R,3R)-3-hydroxybutan-2-yl)oxy)-6-morpholinopyridin-4-yl)-4-methylphenyl)pyrrolidine-1-carboxamide]
Cc1ccc(NC(=O)N2C[C@@H]3[C@H](C2)[C@H]3C(F)(F)F)cc1-c1cc(OCCO)nc(N2CCOCC2)c1 [Example 176, (1R,5S,6r)-N-(3-(2-(2-hydroxyethoxy)-6-morpholinopyridin-4-yl)-4-methylphenyl)-6-(trifluoromethyl)-3-azabicyclo[3.1.0]hexane-3-carboxamide]
Cc1ccc(NC(=O)N2CCC(CC(F)(F)F)C2)cc1-c1cc(OC[C@@H](O)CO)nc(N2CCOCC2)c1 (stereo partly drawn) [Example 179, N-(3-(2-((S)-2,3-dihydroxypropoxy)-6-morpholinopyridin-4-yl)-4-methylphenyl)-3-(2,2,2-trifluoroethyl)pyrrolidine-1-carboxamide]
Cc1ccc(NC(=O)N2CCC(CC(F)(F)F)C2)cc1-c1cc(OC[C@H](O)CO)nc(N2CCOCC2)c1 (stereo partly drawn) [Example 180, N-(3-(2-((R)-2,3-dihydroxypropoxy)-6-morpholinopyridin-4-yl)-4-methylphenyl)-3-(2,2,2-trifluoroethyl)pyrrolidine-1-carboxamide]
Cc1cc(F)c(NC(=O)N2CC[C@@H](CC(F)(F)F)C2)cc1-c1cc(OC[C@@H](C)O)nc(N2CCOCC2)c1 [Example 181, (S)-N-(2-fluoro-5-(2-((R)-2-hydroxypropoxy)-6-morpholinopyridin-4-yl)-4-methylphenyl)-3-(2,2,2-trifluoroethyl)pyrrolidine-1-carboxamide]
Cc1ccc(NC(=O)N2CCC(CC(F)(F)F)C2)cc1-c1cc(OC2CCOCC2)nc(N2CCOCC2)c1 (stereo not shown) [Example 187, N-(4-methyl-3-(2-morpholino-6-((tetrahydro-2H-pyran-4-yl)oxy)pyridin-4-yl)phenyl)-3-(2,2,2-trifluoroethyl)pyrrolidine-1-carboxamide]
Cc1ccc(NC(=O)N2CCC(CC(F)(F)F)C2)cc1-c1cc(O[C@H]2CCOC2)nc(N2CCOCC2)c1 (stereo partly drawn) [Example 188, N-(4-methyl-3-(2-morpholino-6-(((S)-tetrahydrofuran-3-yl)oxy)pyridin-4-yl)phenyl)-3-(2,2,2-trifluoroethyl)pyrrolidine-1-carboxamide]
Cc1ccc(NC(=O)N2CCC(CC(F)(F)F)C2)cc1-c1cc(OCCCO)nc(N2CCOCC2)c1 (stereo not shown) [Example 189, N-(3-(2-(3-hydroxypropoxy)-6-morpholinopyridin-4-yl)-4-methylphenyl)-3-(2,2,2-trifluoroethyl)pyrrolidine-1-carboxamide]
Cc1ccc(NC(=O)N2CCC(CC(F)(F)F)C2)cc1-c1cc(OC2CCN(C)CC2)nc(N2CCOCC2)c1 (stereo not shown) [Example 190, N-(4-methyl-3-(2-((1-methylpiperidin-4-yl)oxy)-6-morpholinopyridin-4-yl)phenyl)-3-(2,2,2-trifluoroethyl)pyrrolidine-1-carboxamide]
Cc1ccc(NC(=O)N2CCC(CC(F)(F)F)C2)cc1-c1cc(O[C@H]2CCN(C)C2)nc(N2CCOCC2)c1 (stereo partly drawn) [Example 195, N-(4-methyl-3-(2-(((S)-1-methylpyrrolidin-3-yl)oxy)-6-morpholinopyridin-4-yl)phenyl)-3-(2,2,2-trifluoroethyl)pyrrolidine-1-carboxamide]
Cc1ccc(NC(=O)N2CCC(CC(F)(F)F)C2)cc1-c1cc(OCC(C)(C)CO)nc(N2CCOCC2)c1 (stereo not shown) [Example 196, N-(3-(2-(3-hydroxy-2,2-dimethylpropoxy)-6-morpholinopyridin-4-yl)-4-methylphenyl)-3-(2,2,2-trifluoroethyl)pyrrolidine-1-carboxamide]
Cc1ccc(NC(=O)N2CCC(CC(F)(F)F)C2)cc1-c1cc(OCC(C)CO)nc(N2CCOCC2)c1 (stereo not shown) [Example 199, N-(3-(2-(3-hydroxy-2-methylpropoxy)-6-morpholinopyridin-4-yl)-4-methylphenyl)-3-(2,2,2-trifluoroethyl)pyrrolidine-1-carboxamide]
Cc1ccc(NC(=O)N2CCC(CC(F)(F)F)C2)cc1-c1cc(O[C@@H]2CCOC2)nc(N2CCOCC2)c1 (stereo partly drawn) [Example 200, N-(4-methyl-3-(2-morpholino-6-(((R)-tetrahydrofuran-3-yl)oxy)pyridin-4-yl)phenyl)-3-(2,2,2-trifluoroethyl)pyrrolidine-1-carboxamide]
Cc1ccc(NC(=O)N2CCC(CC(F)(F)F)C2)cc1-c1cc(O[C@H]2CCNC2)nc(N2CCOCC2)c1 (stereo partly drawn) [Example 201, N-(4-methyl-3-(2-morpholino-6-((S)-pyrrolidin-3-yloxy)pyridin-4-yl)phenyl)-3-(2,2,2,- trifluoroethyl)pyrrolidine-1-carboxamide]
Cc1ccc(NC(=O)N2CCC(CC(F)(F)F)C2)cc1-c1cc(O[C@@H]2CCN(C)C2)nc(N2CCOCC2)c1 (stereo partly drawn) [Example 202, N-(4-methyl-3-(2-(((R)-1-methylpyrrolidin-3-yl)oxy)-6-morpholinopyridin-4-yl)phenyl)-3-(2,2,2-trifluoroethyl)pyrrolidine-1-carboxamide]
Cc1ccc(NC(=O)N2CCC(CC(F)(F)F)C2)cc1-c1cc(O[C@@H]2CCNC2)nc(N2CCOCC2)c1 (stereo partly drawn) [Example 203, N-(4-methyl-3-(2-morpholino-6-((R)-pyrrolidin-3-yloxy)pyridin-4-yl)phenyl)-3-(2,2,2-trifluoroethyl)pyrrolidine-1-carboxamide]
Cc1ccc(NC(=O)N2CC[C@@H](CC(F)(F)F)C2)cc1-c1cc(OC2CNC2)nc(N2CCOCC2)c1 [Example 204, (S)-N-(3-(2-(azetidin-3-yloxy)-6-morpholinopyridin-4-yl)-4-methylphenyl)-3-(2,2,2-trifluoroethyl)pyrrolidine-1-carboxamide]
Cc1ccc(NC(=O)N2CC[C@@H](OC(F)(F)F)C2)cc1-c1cc(OC2CNC2)nc(N2CCOCC2)c1 [Example 205, (R)-N-(3-(2-(azetidin-3-yloxy)-6-morpholinopyridin-4-yl)-4-methylphenyl)-3-(trifluoromethoxy)pyrrolidine-1-carboxamide]
Cc1ccc(NC(=O)N2CC[C@@H](CC(F)(F)F)C2)cc1-c1cc(OC2CC(O)C2)nc(N2CCOCC2)c1 (stereo partly drawn) [Example 206, (3S)-N-[3-[2-(3-hydroxycyclobutoxy)-6-(morpholin-4-yl)pyridin-4-yl]-4-methylphenyl]-3-(2,2,2-trifluoroethyl)pyrrolidine-1-carboxamide]
Cc1ccc(NC(=O)N2CC[C@@H](CC(F)(F)F)C2)cc1-c1cc(O[C@H]2CC[C@H](O)C2)nc(N2CCOCC2)c1 [Example 207, (3S)-N-[3-(2-[[(1S,3S)-3-hydroxycyclopentyl]oxy]-6-(morpholin-4-yl)pyridin-4-yl)-4-methylphenyl]-3-(2,2,2-trifluoroethyl)pyrrolidine-1-carboxamide]
Cc1ccc(NC(=O)N2CC[C@@H](CC(F)(F)F)C2)cc1-c1cc(O[C@@H]2CC[C@@H](O)C2)nc(N2CCOCC2)c1 [Example 208, (3S)-N-[3-(2-[[(1R,3R)-3-hydroxycyclopentyl]oxy]-6-(morpholin-4-yl)pyridin-4-yl)-4-methylphenyl]-3-(2,2,2-trifluoroethyl)pyrrolidine-1-carboxamide]
